Reference: patent US20200017496A1 (priority 2017, published 2020)
Read-outs that look alike come from different tables or passages of the source.

Tested on: Klebsiella pneumoniae (KPN) isolates
Experiment: MIC of compounds alone and combined with antibacterials, broth microdilution (CLSI)
Type: cell-based
Settings: for MIC: Klebsiella pneumoniae
How it was run: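 Compound MIC, and antibacterial MIC at each fixed compound level, taken by visual inspection as lowest concentration stopping growth. Inoculum: log-phase bacteria, final 5·10^5 CFU/mL, cation-adjusted Mueller-Hinton broth; 16-20 h, 35° C, ambient air.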

Compound: CC(C)(O/N=C(\C(=O)N[C@@H]1C(=O)N2C(C(=O)[O-])=C(C[n+]3ccccc3)CS[C@H]12)c1csc(N)n1)C(=O)O [CAZ, Ceftazidime]
- MIC ATB in combination (KPN 6299, AF1 @ 4 μg/mL): 0.5 µg/mL
- MIC ATB in combination (KPN 6299, AF1 @ 8 μg/mL): <=0.25 μg/mL
- MIC ATB in combination (KPN 110376, AF1 @ 4 μg/mL): <=0.25 μg/mL
- MIC ATB in combination (KPN 110376, AF1 @ 8 μg/mL): <=0.25 μg/mL
- MIC ATB in combination (KPN 131119, AF1 @ 4 μg/mL): 0.5 µg/mL
- MIC ATB in combination (KPN 131119, AF1 @ 8 μg/mL): <=0.25 μg/mL
- MIC ATB in combination (KPN 140513, AF1 @ 4 μg/mL): 16 µg/mL
- MIC ATB in combination (KPN 140513, AF1 @ 8 μg/mL): 2 µg/mL
- MIC ATB in combination (KPN 160143, AF1 @ 4 μg/mL): 1 µg/mL
- MIC ATB in combination (KPN 160143, AF1 @ 8 μg/mL): <=0.25 μg/mL
- MIC ATB in combination (KPN 190128, AF1 @ 4 μg/mL): 0.5 µg/mL
- MIC ATB in combination (KPN 190128, AF1 @ 8 μg/mL): <=0.25 μg/mL
- MIC ATB in combination (KPN 190270, AF1 @ 4 μg/mL): 0.5 µg/mL
- MIC ATB in combination (KPN 190270, AF1 @ 8 μg/mL): <=0.25 μg/mL
- MIC ATB in combination (KPN 190425, AF1 @ 4 μg/mL): <=0.25 μg/mL
- MIC ATB in combination (KPN 190425, AF1 @ 8 μg/mL): <=0.25 μg/mL
- MIC ATB in combination (KPN 190551, AF1 @ 4 μg/mL): <=0.25 μg/mL
- MIC ATB in combination (KPN 190551, AF1 @ 8 μg/mL): <=0.25 μg/mL
- MIC ATB in combination (KPN 200047, AF1 @ 4 μg/mL): <=0.25 μg/mL
- MIC ATB in combination (KPN 200047, AF1 @ 8 μg/mL): <=0.25 μg/mL
- MIC ATB in combination (KPN 200327, AF1 @ 4 μg/mL): <=0.25 μg/mL
- MIC ATB in combination (KPN 200327, AF1 @ 8 μg/mL): <=0.25 μg/mL
- MIC ATB in combination (KPN 260251, AF1 @ 4 μg/mL): 1 µg/mL
- MIC ATB in combination (KPN 260251, AF1 @ 8 μg/mL): <=0.25 μg/mL
- MIC ATB in combination (KPN 260252, AF1 @ 4 μg/mL): 32 µg/mL
- MIC ATB in combination (KPN 260252, AF1 @ 8 μg/mL): 8 µg/mL
- MIC ATB in combination (KPN 260376, AF1 @ 4 μg/mL): <=0.25 μg/mL
- MIC ATB in combination (KPN 260376, AF1 @ 8 μg/mL): <=0.25 μg/mL
- MIC ATB in combination (KPN 270077, AF1 @ 4 μg/mL): <=0.25 μg/mL
- MIC ATB in combination (KPN 270077, AF1 @ 8 μg/mL): <=0.25 μg/mL
- MIC ATB in combination (KPN 700603, AF1 @ 4 μg/mL): 1 µg/mL
- MIC ATB in combination (KPN 700603, AF1 @ 8 μg/mL): <=0.25 μg/mL
- MIC ATB in combination (KPN ARA, AF1 @ 4 μg/mL): <=0.25 μg/mL
- MIC ATB in combination (KPN ARA, AF1 @ 8 μg/mL): <=0.25 μg/mL
- MIC ATB in combination (KPN BAA-1898, AF1 @ 4 μg/mL): 1 µg/mL
- MIC ATB in combination (KPN BAA-1898, AF1 @ 8 μg/mL): <=0.25 μg/mL
- MIC ATB in combination (KPN LIB, AF1 @ 4 μg/mL): <=0.25 μg/mL
- MIC ATB in combination (KPN LIB, AF1 @ 8 μg/mL): <=0.25 μg/mL
- MIC ATB in combination (KPN UFR22_O, AF1 @ 4 μg/mL): <=0.25 μg/mL
- MIC ATB in combination (KPN UFR22_O, AF1 @ 8 μg/mL): <=0.25 μg/mL
- MIC ATB in combination (KPN UFR23, AF1 @ 4 μg/mL): <=0.25 μg/mL
- MIC ATB in combination (KPN UFR23, AF1 @ 8 μg/mL): <=0.25 μg/mL
- MIC ATB in combination (KPN UFR24, AF1 @ 4 μg/mL): 1 µg/mL
- MIC ATB in combination (KPN UFR24, AF1 @ 8 μg/mL): 0.5 µg/mL
- MIC ATB in combination (KPN UFR25, AF1 @ 4 μg/mL): 0.5 µg/mL
- MIC ATB in combination (KPN UFR25, AF1 @ 8 μg/mL): <=0.25 μg/mL
- MIC ATB in combination (KPN UFR27, AF1 @ 4 μg/mL): 4 µg/mL
- MIC ATB in combination (KPN UFR27, AF1 @ 8 μg/mL): 0.5 µg/mL
- MIC ATB in combination (KPN UFR28, AF1 @ 4 μg/mL): <=0.25 μg/mL
- MIC ATB in combination (KPN UFR28, AF1 @ 8 μg/mL): <=0.25 μg/mL
- MIC ATB in combination (KPN UFR65, AF1 @ 4 μg/mL): 2 µg/mL
- MIC ATB in combination (KPN UFR65, AF1 @ 8 μg/mL): <=0.25 μg/mL
- MIC ATB in combination (KPN UFR66, AF1 @ 4 μg/mL): 8 µg/mL
- MIC ATB in combination (KPN UFR66, AF1 @ 8 μg/mL): <=0.25 μg/mL
- MIC ATB in combination (KPN UFR67, AF1 @ 4 μg/mL): 16 µg/mL
- MIC ATB in combination (KPN UFR67, AF1 @ 8 μg/mL): 4 µg/mL
- MIC ATB in combination (KPN UFR68, AF1 @ 4 μg/mL): 4 µg/mL
- MIC ATB in combination (KPN UFR68, AF1 @ 8 μg/mL): 1 µg/mL
- MIC ATB in combination (KPN UFR76, AF1 @ 4 μg/mL): 16 µg/mL
- MIC ATB in combination (KPN UFR76, AF1 @ 8 μg/mL): 16 µg/mL
- MIC ATB in combination (KPN UFR77, AF1 @ 4 μg/mL): 4 µg/mL
- MIC ATB in combination (KPN UFR77, AF1 @ 8 μg/mL): 2 µg/mL
- MIC ATB in combination (KPN UFR78, AF1 @ 8 μg/mL): 32 µg/mL
- MIC ATB in combination (KPN UFR79, AF1 @ 4 μg/mL): 2 µg/mL
- MIC ATB in combination (KPN UFR79, AF1 @ 8 μg/mL): 1 µg/mL
- MIC ATB in combination (KPN UFR80, AF1 @ 4 μg/mL): <=0.25 μg/mL
- MIC ATB in combination (KPN UFR80, AF1 @ 8 μg/mL): <=0.25 μg/mL
- MIC ATB in combination (KPN UFR81, AF1 @ 4 μg/mL): 2 µg/mL
- MIC ATB in combination (KPN UFR81, AF1 @ 8 μg/mL): 0.5 µg/mL
- MIC ATB in combination (KPN UFR215, AF1 @ 4 μg/mL): <=0.25 μg/mL
- MIC ATB in combination (KPN UFR215, AF1 @ 8 μg/mL): <=0.25 μg/mL
- MIC ATB in combination (KPN UFR216, AF1 @ 4 μg/mL): <=0.25 μg/mL
- MIC ATB in combination (KPN UFR216, AF1 @ 8 μg/mL): <=0.25 μg/mL
- MIC ATB in combination (KPN UFR217, AF1 @ 4 μg/mL): <=0.25 μg/mL
- MIC ATB in combination (KPN UFR217, AF1 @ 8 μg/mL): <=0.25 μg/mL
- MIC ATB in combination (KPN UFR219, AF1 @ 4 μg/mL): 0.5 µg/mL
- MIC ATB in combination (KPN UFR219, AF1 @ 8 μg/mL): <=0.25 μg/mL
- MIC ATB in combination (KPN UFR220, AF1 @ 4 μg/mL): 2 µg/mL
- MIC ATB in combination (KPN UFR220, AF1 @ 8 μg/mL): 1 µg/mL
- MIC ATB in combination (KPN UFR221, AF1 @ 4 μg/mL): 0.5 µg/mL
- MIC ATB in combination (KPN UFR221, AF1 @ 8 μg/mL): <=0.25 μg/mL
- MIC ATB in combination (KPN UFR222, AF1 @ 4 μg/mL): 8 µg/mL
- MIC ATB in combination (KPN UFR222, AF1 @ 8 μg/mL): 4 µg/mL
- MIC ATB in combination (KPN UFR227O, AF1 @ 4 μg/mL): 2 µg/mL
- MIC ATB in combination (KPN UFR227O, AF1 @ 8 μg/mL): 1 µg/mL
- MIC (BAA1898): 256 µg/mL
- MIC (strain KPN 200327 (TEM-1, SHV-1, CTX-M-15, OXA-1), ATB alone, read-out: MIC): 32 µg/mL
- MIC (strain KPN LIB (SHV-11, OXA-48), ATB alone, read-out: MIC): 0.25 µg/mL
- MIC (strain KPN UFR22_O (TEM-1, SHV-1, OXA-48), ATB alone, read-out: MIC): 2 µg/mL
- MIC (strain KPN UFR23 (TEM-1, SHV-1, OXA-48), ATB alone, read-out: MIC): 0.5 µg/mL
- MIC (strain KPN UFR77 (CMY-2), ATB alone, read-out: MIC): 32 µg/mL
- MIC (strain KPN UFR79 (DHA-1, OXA-1), ATB alone, read-out: MIC): 16 µg/mL
- MIC (strain KPN UFR80 (SHV-11, DHA-1, OXA-1), ATB alone, read-out: MIC): 0.5 µg/mL
- MIC (strain KPN UFR221 (TEM-1, SHV-11, CTX-M-14, DHA-1), ATB alone, read-out: MIC): 16 µg/mL
